Experimental data from patent US20260284166A1, “NOVEL TUMOR ANTIGENS FOR MELANOMA AND USES THEREOF” (UNIVERSITÉ DE MONTRÉAL, priority 2023, published 2026).
Entries after “also recorded” stand apart in the source; their conditions may differ.

Tested on: CD8+ T cells from healthy donor PBMCs
Test: Functional expansion of specific T cells (FEST) assay
Assay type: cell-based, human
Settings: in vitro stimulation of healthy donor T cells with 1 μg/mL peptide, harvested day 20; TCR Vβ CDR3 sequencing of CD8+ cells
Source text: aeTSA selection for Immunogenicity assay. Melanoma aeTSAs to be tested in T cell-based immunogenicity assays were selected based on the following criteria: 1) complete loss of expression (RPHM) on-therapy in at least one responder from the Riaz et al.^8 cohort capable to present the respective aeTSAs (at least one HLA allele with rank elution <2% in NetMHCpan4.1b^5), 2) elevated mean expression in TCGA-SKCM, 3) the HLA allotype presenting the aeTSA (HLA-A*02:01 or HLA-B*68:01 shared by the melanoma samples and PBMCs donors), 4) the aeTSA biotype (25% canonical, 75% non-canonical), 5) novel MAP status.
T cells were cultured as previously described^9, with minor modifications. Briefly, on day 0, thawed PBMCs from D36 (Miltenyi Biotec) were T cell-enriched using the Human Pan T cell isolation kit (Miltenyi Biotec). T cells were resuspended at 2×10^6/mL in AIM V media supplemented with 50 μg/mL gentamicin (ThermoFisher Scientific) and 1% HEPES. The T cell-negative fraction was irradiated at 30 Gγ, washed, and resuspended at 2×10^6/mL in AIM V media supplemented with 50 μg/mL gentamicin and 1% HEPES. 2.5 ml per well of both T cells and irradiated T cell-depleted cells were added to a 12-well plate, along with each peptide (GLS Biochem) (1 μg/mL final concentration) or without peptide. Cells were cultured for 10 days at 37° C., 5% CO2. On day 3 and 7, half the culture media was replaced with fresh culture media containing 100 IU/mL IL-2, 50 ng/mL IL-7, and 50 ng/mL IL-15 (day 3) and 200 IU/mL IL-2, 50 ng/mL IL-7, and 50 ng/mL IL-15 (day 7). On day 10, thawed PBMCs from the same donor were used to generate a new batch of T cell-depleted cells. These cells were irradiated at 30 Gγ and loaded with […] of relevant peptide or without peptide during 2 h at 37° C. These cells were washed and added to cultures at a 1:1 T cell:non-T cell ratio. […] On day 20, cells were harvested to perform FEST assays.
For FEST assays, CD8^+ cells were further isolated using the Human CD8^+ T Cell Isolation Kit (Miltenyi Biotec). […]

| Sequence | Amino acid sequences of the CDR3 of the TCRβ chain of the clonotypes expanded |
| --- | --- |
| HTLPALSRR [SEQ ID NO: 66] | CASSFQGLNTEAFF (SEQ ID NO: 1103); also recorded: CASSPGQGNEKLFF (SEQ ID NO: 1104); also recorded: CASSLGSGYEQYF (SEQ ID NO: 1105); also recorded: CASSLGLYNEQFF (SEQ ID NO: 1106); also recorded: CASSPGTDYNEQFF (SEQ ID NO: 1107); also recorded: CATRPGAIRGYTF (SEQ ID NO: 1108); also recorded: CASSLIGGADTEAFF (SEQ ID NO: 1109) |
| GVDDLVFRR [SEQ ID NO: 64] | CASSPDPEGGEQYF; also recorded: CASSLQGHGYTF; also recorded: CASNVARTGGDISGDYEQYF; also recorded: CASSLGLAGSYEQYF; also recorded: CASSDSSYNSPLHF |
| AAAGVSSTK [SEQ ID NO: 73] | CASSPTNTYEQYF; also recorded: CASHPAGADMNTEAFF; also recorded: CASSLAGRETQYF; also recorded: CASSVWGEPYNEQFF; also recorded: CASSRTDSYEQYF; also recorded: CASSLQGANGYTF |
